Experimental data taken from ChEMBL document CHEMBL3351967, “2-Alkyloxazoles as potent and selective PI4KIIIβ inhibitors demonstrating inhibition of HCV replication” (Bioorg Med Chem Lett, 2014).
Values after ≈ are worked out from the molar mass of the structure shown.

What was measured:
[1] = Inhibition of PI3K (unknown origin); set-up: species or system Homo sapiens
[2] = Inhibition of human recombinant Phosphatidylinositol 4-kinase type 3-alpha expressed in Sf9 cells assessed as reduction in […] by pyruvate kinase and lactate dehydrogenase coupled assay
[3] = Inhibition of human recombinant Phosphatidylinositol 4-kinase type 3-beta expressed in Sf9 cells assessed as reduction in […] by pyruvate kinase and lactate dehydrogenase coupled assay
[4] = tested on: Hepatitis C virus; assay: Antiviral activity against Hepatitis C virus genotype 1b Con1 infected in HuH7 cells by cell based replicon assay; format: functional, Hepacivirus hominis; conditions: genotype 1b Con1, Huh-7
[5] = tested on: Hepatitis C virus; assay: Antiviral activity against Hepatitis C virus subtype 1a infected in HuH7 cells by cell based replicon assay; format: functional, Hepacivirus hominis; conditions: Huh-7
[6] = tested on: Hepatitis C virus; assay: Antiviral activity against Hepatitis C virus subtype 2a JFH-1 infected in HuH7 cells by cell based replicon assay; format: functional, Hepacivirus hominis; conditions: genotype 2a JFH-1, Huh-7
[7] = Cytotoxicity against Hepatitis C virus genotype 1b Con1 infected human HuH7 cells after 48 hrs by MTT assay; format: cell-based, Huh-7; conditions: HuH7 cells infected with Hepatitis C virus genotype 1b Con1
[8] = Aqueous solubility at room temperature after 24 hrs by HPLC method; format: physicochemical; conditions: aqueous medium

With Cc1ccc(-c2cnc(C3CC3)o2)cc1S(=O)(=O)Nc1ccccc1Cl the IC50 [1] was 2.4 µM, the IC50 [2] was > 10 µM and the IC50 [3] was 135 nM. The EC50 [4] was 1020 nM, the EC50 [5] was 1580 nM and the EC50 [6] was 1820 nM. The CC50 at 48 h [7] was > 31 µM and the solubility at 24 h [8] was < 2 µM.

For Cc1ccc(-c2cnc(C3CC3)o2)cc1S(=O)(=O)N[C@H]1CC[C@H](O)CC1, the IC50 [1] was > 9.1 µM, the IC50 [3] was 49 nM and the EC50 [4] was 99 nM. For the same compound, the EC50 [5] was 166 nM, the CC50 at 48 h [7] was > 31 µM and the solubility at 24 h [8] was 220 µM (≈ 82.8 µg/mL).

For Cc1cc(-c2cnc(C3CC3)o2)cc(S(=O)(=O)N[C@H]2CC[C@H](O)CC2)c1C, the IC50 [3] was > 2500 nM, the EC50 [4] was 6730 nM and the EC50 [5] was 2100 nM. The CC50 at 48 h [7] was > 31 µM.

With Cc1ccc(-c2oc(C3CC3)nc2C)cc1S(=O)(=O)N[C@H]1CC[C@H](O)CC1 the IC50 [1] was 6.29 µM, the IC50 [2] was > 10 µM and the IC50 [3] was 18 nM. The EC50 [4] was 46 nM, the EC50 [5] was 59 nM and the EC50 [6] was 375 nM. The CC50 at 48 h [7] was > 31 µM.

In the case of COc1ccc(-c2oc(C3CC3)nc2C)cc1S(=O)(=O)N[C@H]1CC[C@H](O)CC1, the IC50 [1] is reported as 8.2 µM, the IC50 [2] is reported as > 10 µM and the IC50 [3] is reported as 19 nM. It also gave an EC50 [4] of 34 nM, an EC50 [5] of 66 nM and an EC50 [6] of 324 nM. The CC50 at 48 h [7] was > 31 µM.

For COc1ccc(-c2ocnc2C)cc1S(=O)(=O)N[C@H]1CC[C@H](O)CC1, the IC50 [3] was 1610 nM, the EC50 [4] was > 10000 nM and the CC50 at 48 h [7] was > 31 µM.

In the case of COc1ccc(-c2oc(C)nc2C)cc1S(=O)(=O)N[C@H]1CC[C@H](O)CC1, the IC50 [3] is reported as 414 nM, the EC50 [4] is reported as 3210 nM and the CC50 at 48 h [7] is reported as > 31 µM.

With COc1ccc(-c2oc(C3(C)CC3)nc2C)cc1S(=O)(=O)N[C@H]1CC[C@H](O)CC1 the IC50 [3] was 28 nM, the EC50 [4] was 41 nM and the EC50 [5] was 86 nM. For the same compound, the EC50 [6] was 147 nM and the CC50 at 48 h [7] was > 31 µM.

In the case of COc1ccc(-c2oc(C3CCCC3)nc2C)cc1S(=O)(=O)N[C@H]1CC[C@H](O)CC1, the IC50 [3] is reported as 9 nM, the EC50 [4] is reported as 30 nM and the CC50 at 48 h [7] is reported as > 31 µM.

With COc1ccc(-c2oc(C3CCCCC3)nc2C)cc1S(=O)(=O)N[C@H]1CC[C@H](O)CC1 the IC50 [3] was 19 nM, the EC50 [4] was 108 nM and the CC50 at 48 h [7] was > 31 µM.

With COc1ccc(-c2oc(C3CCC(CO)CC3)nc2C)cc1S(=O)(=O)N[C@H]1CC[C@H](O)CC1 (some centres undefined) the IC50 [3] was 9 nM, the EC50 [4] was 32 nM and the CC50 at 48 h [7] was > 31 µM.

In the case of COc1ccc(-c2oc(C3CCOCC3)nc2C)cc1S(=O)(=O)N[C@H]1CC[C@H](O)CC1, the IC50 [3] is reported as 36 nM, the EC50 [4] is reported as 402 nM and the CC50 at 48 h [7] is reported as > 31 µM.

For COc1ccc(-c2oc(-c3ccccc3)nc2C)cc1S(=O)(=O)N[C@H]1CC[C@H](O)CC1, the IC50 [3] was 37 nM, the EC50 [4] was 193 nM and the CC50 at 48 h [7] was > 31 µM.

With COc1ccc(-c2oc(-c3ccncc3)nc2C)cc1S(=O)(=O)N[C@H]1CC[C@H](O)CC1 the IC50 [3] was 191 nM, the EC50 [4] was 410 nM and the CC50 at 48 h [7] was > 31 µM.

Work on COc1ccc(-c2oc(Cc3ccccc3)nc2C)cc1S(=O)(=O)N[C@H]1CC[C@H](O)CC1 yielded an IC50 [3] of 4 nM, an EC50 [4] of 41 nM and an EC50 [5] of 53 nM. For the same compound, the EC50 [6] was 383 nM and the CC50 at 48 h [7] was > 31 µM.

In the case of COc1ccc(-c2oc(C3CC3)nc2C)cc1, the IC50 [3] is reported as > 2500 nM, the EC50 [4] is reported as > 30000 nM and the CC50 at 48 h [7] is reported as > 31 µM.

With COc1ccc(-c2oc(C3CC3)nc2C)cc1S(C)(=O)=O the IC50 [3] was 76 nM, the EC50 [4] was 120 nM and the CC50 at 48 h [7] was > 31 µM.

In the case of COc1ccc(-c2oc(C3CC3)nc2C)cc1S(=O)(=O)CC1CCC(O)CC1 (centres undefined), the IC50 [3] is reported as 79 nM, the EC50 [4] is reported as 67 nM and the CC50 at 48 h [7] is reported as > 31 µM.

For COc1ccc(-c2oc(C3CC3)nc2C)cc1C(=O)N[C@H]1CC[C@H](O)CC1, the IC50 [3] was 9730 nM, the EC50 [4] was 3560 nM and the CC50 at 48 h [7] was > 31 µM.

For COc1ccc(-c2oc(C3CC3)nc2C)cc1S(=O)(=O)Nc1cccc(C#N)c1, the IC50 [3] was 11 nM, the EC50 [4] was < 30 nM and the CC50 at 48 h [7] was > 31 µM.

For COc1ccc(-c2oc(C3CC3)nc2C)cc1S(=O)(=O)NCCO, the IC50 [3] was 27 nM, the EC50 [4] was 43 nM and the CC50 at 48 h [7] was > 31 µM.

For COc1ccc(-c2oc(C3CC3)nc2C)cc1S(N)(=O)=O, the IC50 [3] was 64 nM, the EC50 [4] was 67 nM and the CC50 at 48 h [7] was > 31 µM.

For COc1ccc(-c2oc(C3CC3)nc2C)cc1S(=O)(=O)NCC(C)(C)O, the IC50 [3] was 33 nM, the EC50 [4] was 114 nM and the CC50 at 48 h [7] was > 31 µM.

For COc1ccc(-c2cnc(C3CC3)o2)cc1S(=O)(=O)N[C@H]1CC[C@H](O)CC1, the IC50 [3] was 37 nM, the EC50 [4] was 193 nM and the CC50 at 48 h [7] was > 31 µM.

For COc1ccc(-c2cc(C3CC3)nn2C)cc1S(=O)(=O)N[C@H]1CC[C@H](O)CC1, the IC50 [3] was 54 nM, the EC50 [4] was 356 nM and the CC50 at 48 h [7] was > 31 µM.

In the case of COc1ccc(-c2[nH]c(C3CC3)nc2C)cc1S(=O)(=O)N[C@H]1CC[C@H](O)CC1, the IC50 [3] is reported as 1040 nM, the EC50 [4] is reported as 9950 nM and the CC50 at 48 h [7] is reported as > 31 µM.
